From PubChem BioAssay (NCI)
Where “and” joins values, the source holds several entries; their conditions need not be identical. Identical values can stand only once.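 Grown in 96-well plates, cells were treated for 48 hours with each compound at five concentrations. Insufficient inhibition: endpoint recorded as highest concentration tested. Abbreviation: GI50, concentration required for 50% inhibition of growth. Definition used: TGI = concentration required for complete inhibition of growth.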

Key:
Test in all cases: NCI tumour cell line growth inhibition, 48 h
SK-MEL-5 melanoma = system: SK-MEL-5 melanoma
KM12 colon = system: KM12 colon
UACC-62 melanoma = system: UACC-62 melanoma
XF 498 CNS = system: XF 498 CNS
OVCAR-8 ovarian = system: OVCAR-8 ovarian
ACHN renal = system: ACHN renal
RXF 393 renal = system: RXF 393 renal
SF-539 CNS = system: SF-539 CNS
K-562 leukemia = system: K-562 leukemia
UO-31 renal = system: UO-31 renal
BT-549 breast = system: BT-549 breast
EKVX NSCLC = system: EKVX NSCLC
SK-MEL-28 melanoma = system: SK-MEL-28 melanoma
SNB-19 CNS = system: SNB-19 CNS
MDA-N = system: MDA-N
SW-620 colon = system: SW-620 colon
HT29 colon = system: HT29 colon
HCT-116 colon = system: HCT-116 colon
SNB-75 CNS = system: SNB-75 CNS
SF-268 CNS = system: SF-268 CNS
NCI-H460 lung = system: NCI-H460 lung
NCI-H226 lung = system: NCI-H226 lung
HOP-18 NSCLC = system: HOP-18 NSCLC
MCF7 breast = system: MCF7 breast
UACC-257 melanoma = system: UACC-257 melanoma
HOP-62 NSCLC = system: HOP-62 NSCLC
786-0 renal = system: 786-0 renal
CCRF-CEM leukemia = system: CCRF-CEM leukemia
RPMI-8226 leukemia = system: RPMI-8226 leukemia
IGROV1 ovarian = system: IGROV1 ovarian
COLO 205 colon = system: COLO 205 colon
KM20L2 colon = system: KM20L2 colon
SNB-78 CNS = system: SNB-78 CNS
LOX IMVI melanoma = system: LOX IMVI melanoma
HOP-92 NSCLC = system: HOP-92 NSCLC
M19-MEL melanoma = system: M19-MEL melanoma
SF-295 CNS = system: SF-295 CNS
HCT-15 colon = system: HCT-15 colon
HS 578T breast = system: HS 578T breast
U251 CNS = system: U251 CNS
HCC-2998 colon = system: HCC-2998 colon
NCI/ADR-RES ovarian = system: NCI/ADR-RES ovarian
M14 melanoma = system: M14 melanoma
NCI-H522 lung = system: NCI-H522 lung
OVCAR-3 ovarian = system: OVCAR-3 ovarian
OVCAR-5 ovarian = system: OVCAR-5 ovarian
CAKI-1 renal = system: CAKI-1 renal
MDA-MB-435 = system: MDA-MB-435
DMS 273 small cell lung = system: DMS 273 small cell lung
HL-60(TB) leukemia = system: HL-60(TB) leukemia
MOLT-4 leukemia = system: MOLT-4 leukemia
T-47D breast = system: T-47D breast
MALME-3M melanoma = system: MALME-3M melanoma
P388 leukemia = system: P388 leukemia
DU-145 prostate = system: DU-145 prostate
A549 NSCLC = system: A549 NSCLC
SN12C renal = system: SN12C renal
DLD-1 colon = system: DLD-1 colon
SR leukemia = system: SR leukemia
MDA-MB-231 breast = system: MDA-MB-231 breast
SK-MEL-2 melanoma = system: SK-MEL-2 melanoma
TK-10 renal = system: TK-10 renal
A498 renal = system: A498 renal
SK-OV-3 ovarian = system: SK-OV-3 ovarian
SN12K1 renal = system: SN12K1 renal
DMS 114 small cell lung = system: DMS 114 small cell lung
OVCAR-4 ovarian = system: OVCAR-4 ovarian
PC-3 prostate = system: PC-3 prostate
P388/ADR leukemia = system: P388/ADR leukemia

O=C1c2c(O)ccc(O)c2C(=O)c2c(NCCNCCO)ccc(NCCNCCO)c21
TGI (SK-MEL-5 melanoma): 0.689 µM and 0.329 µM and 0.657 µM
GI50 (KM12 colon): 0.459 µM
TGI (KM12 colon): 2.58 µM and 2.59 µM and 3.9 µM
TGI (UACC-62 melanoma): 0.218 µM and 0.756 µM and 0.595 µM
TGI (XF 498 CNS): 0.0879 µM
TGI (OVCAR-8 ovarian): 0.388 µM and 0.414 µM and 0.665 µM
TGI (ACHN renal): 0.123 µM and 0.783 µM and 0.229 µM
TGI (RXF 393 renal): 0.307 µM and 0.368 µM and 0.493 µM
TGI (SF-539 CNS): 0.0705 µM and 0.699 µM and 0.244 µM
GI50 (K-562 leukemia): 0.142 µM
TGI (K-562 leukemia): 1.71 µM and 1.78 µM
TGI (UO-31 renal): 0.835 µM and 0.668 µM and 2.55 µM
TGI (BT-549 breast): 0.5 µM and 2.11 µM and 0.54 µM
GI50 (EKVX NSCLC): 0.564 µM
TGI (EKVX NSCLC): 3.68 µM and 4.55 µM and 1.28 µM
TGI (SK-MEL-28 melanoma): 1.66 µM and 1.03 µM and 2.31 µM
TGI (SNB-19 CNS): 0.546 µM and 2.08 µM and 0.79 µM
TGI (MDA-N): 1.48 µM and 1.66 µM
TGI (SW-620 colon): 1.91 µM and 1.62 µM and 1.77 µM
TGI (HT29 colon): 1.05 µM and 0.761 µM and 3.63 µM
GI50 (HCT-116 colon): 0.0451 µM
TGI (HCT-116 colon): 0.327 µM and 1.23 µM and 0.858 µM
TGI (SNB-75 CNS): 0.122 µM and 0.541 µM and 0.218 µM
TGI (SF-268 CNS): 0.32 µM and 0.696 µM and 0.845 µM
TGI (NCI-H460 lung): 0.274 µM and 0.332 µM and 0.484 µM
TGI (NCI-H226 lung): 0.0547 µM and 0.1 µM and 0.136 µM
TGI (HOP-18 NSCLC): 1.67 µM
GI50 (MCF7 breast): < 0.01 µM and < 0.005 µM and 0.00426 µM
TGI (MCF7 breast): 0.64 µM and 0.663 µM and 1.23 µM
GI50 (UACC-257 melanoma): 0.82 µM
TGI (UACC-257 melanoma): 4.61 µM and 6.14 µM and 7.32 µM
TGI (HOP-62 NSCLC): 0.122 µM and 0.0851 µM and 0.204 µM
TGI (786-0 renal): 0.13 µM and 0.299 µM and 0.584 µM
GI50 (CCRF-CEM leukemia): 0.0139 µM
TGI (RPMI-8226 leukemia): 1.15 µM and 6.39 µM and 3.55 µM
TGI (IGROV1 ovarian): 1.41 µM and 3.13 µM and 2.21 µM
TGI (COLO 205 colon): 1.23 µM and 0.769 µM and 1.16 µM
TGI (KM20L2 colon): 8.09 µM
TGI (SNB-78 CNS): 1.66 µM
TGI (LOX IMVI melanoma): 0.191 µM and 0.571 µM and 0.706 µM
GI50 (HOP-92 NSCLC): 0.0312 µM
TGI (HOP-92 NSCLC): 0.773 µM and 0.425 µM and 0.0779 µM
TGI (M19-MEL melanoma): 0.925 µM
TGI (SF-295 CNS): 0.321 µM and 0.878 µM and 0.526 µM
TGI (HCT-15 colon): 2.55 µM and 24 µM and 4.15 µM
TGI (HS 578T breast): 0.296 µM and 1.88 µM and 1.03 µM
TGI (U251 CNS): 0.151 µM and 0.499 µM and 0.376 µM
TGI (HCC-2998 colon): 1.04 µM and 0.795 µM and 0.908 µM
GI50 (NCI/ADR-RES ovarian): 1.41 µM and 1.64 µM and 3.86 µM
TGI (NCI/ADR-RES ovarian): > 100 µM and 50 µM and 23.9 µM
TGI (M14 melanoma): 1.77 µM and 0.809 µM and 2.11 µM
GI50 (NCI-H522 lung): 0.0232 µM and 0.00969 µM and 0.0544 µM
TGI (NCI-H522 lung): 0.101 µM and 0.0831 µM and 0.574 µM
GI50 (OVCAR-3 ovarian): 0.483 µM
TGI (OVCAR-3 ovarian): 1.87 µM and 1.47 µM and 2.13 µM
TGI (OVCAR-5 ovarian): 1.05 µM and 4.75 µM and 2.74 µM
TGI (CAKI-1 renal): 1.07 µM and 0.18 µM
GI50 (MDA-MB-435): 0.297 µM
TGI (MDA-MB-435): 1.65 µM and 1.07 µM and 1.82 µM
TGI (DMS 273 small cell lung): 0.57 µM
GI50 (HL-60(TB) leukemia): 0.0127 µM
GI50 (MOLT-4 leukemia): < 0.01 µM and < 0.005 µM and 0.00476 µM
TGI (MOLT-4 leukemia): 0.235 µM and 0.339 µM
TGI (T-47D breast): 1.05 µM and 0.652 µM and 1.5 µM
TGI (MALME-3M melanoma): 1.45 µM and 0.955 µM and 0.974 µM
TGI (P388 leukemia): 0.0821 µM
TGI (DU-145 prostate): 0.0832 µM and 0.465 µM and 0.31 µM
TGI (A549 NSCLC): 0.418 µM and 0.627 µM
TGI (SN12C renal): 0.162 µM and 1.57 µM and 0.214 µM
TGI (DLD-1 colon): 4.87 µM
GI50 (SR leukemia): < 0.005 µM
TGI (SR leukemia): 0.102 µM and 0.389 µM and 0.865 µM
TGI (MDA-MB-231 breast): 1.45 µM and 2.38 µM and 1.11 µM
TGI (SK-MEL-2 melanoma): 0.657 µM and 0.6 µM and 0.926 µM
TGI (TK-10 renal): 1.36 µM and 0.654 µM and 2.05 µM
GI50 (A498 renal): 0.0721 µM
TGI (A498 renal): 0.555 µM and 0.588 µM and 0.59 µM
TGI (SK-OV-3 ovarian): 0.228 µM and 0.563 µM and 0.431 µM
TGI (SN12K1 renal): 0.305 µM
TGI (DMS 114 small cell lung): 0.263 µM
TGI (OVCAR-4 ovarian): 2.08 µM and 0.744 µM and 1.4 µM
TGI (PC-3 prostate): 1.29 µM and 1.45 µM and 1.55 µM
TGI (P388/ADR leukemia): 6 µM
